# System: MV-4-11 cells
# Test: Gene expression microarray analysis (Affymetrix PrimeView) and GSEA
# Format: cell-based, human
# Parameters: RFU PODN (11730768_x_at) / Fold change /veh PODN (11730768_x_at) / RFU LINC00158 (11744669_a_at) / Fold change /veh LINC00158 (11744669_a_at) / RFU DUSP10 (11751237_a_at) / Fold change /veh DUSP10 (11751237_a_at) / RFU ID3 (11757404_x_at) / Fold change /veh ID3 (11757404_x_at) / RFU PLEKHG5 (11737974_s_at) / Fold change /veh PLEKHG5 (11737974_s_at) / RFU LRRC4B (11730491_at) / Fold change /veh LRRC4B (11730491_at) / RFU GIMAP4 (11747438_a_at) / Fold change /veh GIMAP4 (11747438_a_at) / RFU KRT8 (11758183_x_at) / Fold change /veh KRT8 (11758183_x_at) / RFU CNN1 (11734310_a_at) / Fold change /veh CNN1 (11734310_a_at) / RFU VPS37D (11726825_at) / Fold change /veh VPS37D (11726825_at) / RFU C10orf10 (11716522_x_at) / Fold change /veh C10orf10 (11716522_x_at) / RFU KIR2DL2 /// KIR2DL4 /// KIR2DL5A /// KIR2DL5B /// KIR2DS1 /// KIR2DS2 /// KIR2DS3 /// KIR2DS4 /// KIR3DL3 /// KIR3DL3 /// KIR3DS1 (11738374_at) / Fold change /veh KIR2DL2 /// KIR2DL4 /// KIR2DL5A /// KIR2DL5B /// KIR2DS1 /// KIR2DS2 /// KIR2DS3 /// KIR2DS4 /// KIR3DL3 /// KIR3DL3 /// KIR3DS1 (11738374_at) / RFU C1QL1 (11718748_at) / Fold change /veh C1QL1 (11718748_at) / RFU TMPRSS4 (11747572_a_at) / Fold change /veh TMPRSS4 (11747572_a_at) / RFU HAMP (11756126_x_at) / Fold change /veh HAMP (11756126_x_at) / RFU RNFT2 (11725882_a_at) / Fold change /veh RNFT2 (11725882_a_at) / RFU NR4A2 (11747474_a_at) / Fold change /veh NR4A2 (11747474_a_at) / RFU ABCC12 (11746883_a_at) / Fold change /veh ABCC12 (11746883_a_at) / RFU TMEM136 (11760407_x_at) / Fold change /veh TMEM136 (11760407_x_at) / RFU CLDN22 /// WWC2 (11732394_at) / Fold change /veh CLDN22 /// WWC2 (11732394_at) / RFU HLA-DPB1 (11760878_x_at) / Fold change /veh HLA-DPB1 (11760878_x_at) / RFU SPINT1 (11716480_a_at) / Fold change /veh SPINT1 (11716480_a_at) / RFU GAP43 (11754022_s_at) / Fold change /veh GAP43 (11754022_s_at) / RFU A4GNT (11735810_at) / Fold change /veh A4GNT (11735810_at) / RFU PRB3 (11715151_x_at) / Fold change /veh PRB3 (11715151_x_at) / RFU TUBB4B (11761932_at) / Fold change /veh TUBB4B (11761932_at) / RFU CAPN14 (11732068_a_at) / Fold change /veh CAPN14 (11732068_a_at) / RFU TMCC2 (11721928_a_at) / Fold change /veh TMCC2 (11721928_a_at) / RFU IRGQ (11745062_a_at) / Fold change /veh IRGQ (11745062_a_at) / RFU FAM174B (11720279_a_at) / Fold change /veh FAM174B (11720279_a_at) / RFU TMPRSS4 (11748680_a_at) / Fold change /veh TMPRSS4 (11748680_a_at) / RFU FAM212B (11763350_a_at) / Fold change /veh FAM212B (11763350_a_at) / RFU PLEKHG5 (11743358_a_at) / Fold change /veh PLEKHG5 (11743358_a_at) / RFU ZSCAN30 (11745921_a_at) / Fold change /veh ZSCAN30 (11745921_a_at) / RFU CMKLR1 (11741424_a_at) / Fold change /veh CMKLR1 (11741424_a_at) / RFU LOC101060620 /// MAPK8IP1 (11723275_at) / Fold change /veh LOC101060620 /// MAPK8IP1 (11723275_at) / RFU SPTSSB (11747773_x_at) / Fold change /veh SPTSSB (11747773_x_at) / RFU PRSS12 (11739890_at) / Fold change /veh PRSS12 (11739890_at) / RFU BIN1 (11741810_x_at) / Fold change /veh BIN1 (11741810_x_at) / RFU WNT11 (11732464_a_at) / Fold change /veh WNT11 (11732464_a_at) / RFU C10orf10 (11716521_a_at) / Fold change /veh C10orf10 (11716521_a_at) / RFU C5orf56 (11738089_at) / Fold change /veh C5orf56 (11738089_at) / RFU CYB561 (11721691_x_at) / Fold change /veh CYB561 (11721691_x_at) / RFU ANKRD19P (11752326_a_at) / Fold change /veh ANKRD19P (11752326_a_at) / RFU OR2T12 /// OR2T33 /// OR2T8 (11738714_s_at) / Fold change /veh OR2T12 /// OR2T33 /// OR2T8 (11738714_s_at) / RFU VCAN (11748164_a_at) / Fold change /veh VCAN (11748164_a_at) / RFU JSRP1 (11732532_at) / Fold change /veh JSRP1 (11732532_at) / RFU KRTAP10-11 (11738290_x_at) / Fold change /veh KRTAP10-11 (11738290_x_at) / RFU MYO3A (11730013_a_at) / Fold change /veh MYO3A (11730013_a_at) / RFU EBF3 (11725865_a_at) / Fold change /veh EBF3 (11725865_a_at) / RFU CAMK2N1 (11719241_x_at) / Fold change /veh CAMK2N1 (11719241_x_at) / RFU C5orf56 (11738088_a_at) / Fold change /veh C5orf56 (11738088_a_at) / RFU OLFML3 (11715873_a_at) / Fold change /veh OLFML3 (11715873_a_at) / RFU LOC100653217 /// NTM (11731650_a_at) / Fold change /veh LOC100653217 /// NTM (11731650_a_at) / RFU MAPK11 (11762145_a_at) / Fold change /veh MAPK11 (11762145_a_at) / RFU FIZ1 (11724087_x_at) / Fold change /veh FIZ1 (11724087_x_at) / RFU OASL (11726364_x_at) / Fold change /veh OASL (11726364_x_at) / RFU SOX15 (11748057_x_at) / Fold change /veh SOX15 (11748057_x_at) / RFU CD79A (11719716_a_at) / Fold change /veh CD79A (11719716_a_at) / RFU HIST1H1D (11736915_at) / Fold change /veh HIST1H1D (11736915_at) / RFU CASKIN2 (11723855_a_at) / Fold change /veh CASKIN2 (11723855_a_at) / RFU LOC730098 (11760151_x_at) / Fold change /veh LOC730098 (11760151_x_at) / RFU OR4N2 (11742367_at) / Fold change /veh OR4N2 (11742367_at) / RFU PRRT2 (11749266_a_at) / Fold change /veh PRRT2 (11749266_a_at) / RFU SNX32 (11753110_a_at) / Fold change /veh SNX32 (11753110_a_at) / RFU CDHR5 (11726645_a_at) / Fold change /veh CDHR5 (11726645_a_at) / RFU RCAN1 (11760418_a_at) / Fold change /veh RCAN1 (11760418_a_at) / RFU FAM167A (11723789_a_at) / Fold change /veh FAM167A (11723789_a_at) / RFU FAM26E (11764081_at) / Fold change /veh FAM26E (11764081_at) / RFU ISYNA1 (11749810_s_at) / Fold change /veh ISYNA1 (11749810_s_at) / RFU ACY1 (11761880_at) / Fold change /veh ACY1 (11761880_at) / RFU 11764098_at / Fold change /veh 11764098_at / RFU SAMD14 (11745864_x_at) / Fold change /veh SAMD14 (11745864_x_at) / RFU NPB (11741838_a_at) / Fold change /veh NPB (11741838_a_at) / RFU TMPRSS6 (11731388_a_at) / Fold change /veh TMPRSS6 (11731388_a_at) / RFU KRTAP10-2 (11738614_at) / Fold change /veh KRTAP10-2 (11738614_at) / RFU ARHGAP8 /// PRR5-ARHGAP8 (11727945_x_at) / Fold change /veh ARHGAP8 /// PRR5-ARHGAP8 (11727945_x_at) / RFU KRTAP5-7 /// NADSYN1 (11734609_at) / Fold change /veh KRTAP5-7 /// NADSYN1 (11734609_at) / RFU RASL12 (11751679_a_at) / Fold change /veh RASL12 (11751679_a_at) / RFU CDKN2B (11736163_a_at) / Fold change /veh CDKN2B (11736163_a_at) / RFU PRF1 (11729649_at) / Fold change /veh PRF1 (11729649_at) / RFU, ZNF638 /// ZNF638-IT1 / Fold change vs veh, ZNF638 /// ZNF638-IT1 / RFU, PANK3 / Fold change vs veh, PANK3 / RFU, SH3YL1 / Fold change vs veh, SH3YL1 / RFU, ZEB2 / Fold change vs veh, ZEB2 / RFU, NRIP1 / Fold change vs veh, NRIP1 / RFU, PTTG1IP / Fold change vs veh, PTTG1IP / RFU, CAPN2 / Fold change vs veh, CAPN2 / RFU, MED14 / Fold change vs veh, MED14 / RFU, SNORA58 / Fold change vs veh, SNORA58 / RFU, C1orf63 / Fold change vs veh, C1orf63 / RFU, LRRFIP1 / Fold change vs veh, LRRFIP1 / RFU, NDUFAF7 / Fold change vs veh, NDUFAF7 / RFU, SLC12A2 / Fold change vs veh, SLC12A2 / RFU, IBTK / Fold change vs veh, IBTK / RFU, ESF1 / Fold change vs veh, ESF1 / Fold change vs veh, TMEM50B / RFU, TAOK1 / Fold change vs veh, TAOK1 / RFU, ACBD3 / Fold change vs veh, ACBD3 / RFU, TMA16 / Fold change vs veh, TMA16 / RFU, RWDD3 / Fold change vs veh, RWDD3 / RFU, BCAT1 / Fold change vs veh, BCAT1 / RFU, EDEM3 / Fold change vs veh, EDEM3 / RFU, TMEM33 / Fold change vs veh, TMEM33 / RFU, WDR75 / Fold change vs veh, WDR75 / RFU, AHCTF1 / Fold change vs veh, AHCTF1 / RFU, TFRC / Fold change vs veh, TFRC / RFU, ZDHHC17 / Fold change vs veh, ZDHHC17 / RFU, NOM1 / Fold change vs veh, NOM1 / RFU, ARL8B / Fold change vs veh, ARL8B / RFU, ZBTB11 / Fold change vs veh, ZBTB11 / RFU, TAMM41 / Fold change vs veh, TAMM41 / RFU, KIAA1704 /// LOC100996395 / Fold change vs veh, KIAA1704 /// LOC100996395 / RFU, ING1 / Fold change vs veh, ING1 / RFU, TRMT61B / Fold change vs veh, TRMT61B / RFU, FUBP3 / Fold change vs veh, FUBP3 / RFU, TP53 / Fold change vs veh, TP53 / RFU, TNKS2 / Fold change vs veh, TNKS2 / RFU, ZFP14 / Fold change vs veh, ZFP14 / RFU, ACTR2 / Fold change vs veh, ACTR2 / RFU, PPP3R1 / Fold change vs veh, PPP3R1 / RFU, PIK3R1 / Fold change vs veh, PIK3R1 / RFU, HNRNPA1 / Fold change vs veh, HNRNPA1 / RFU, RNF170 / Fold change vs veh, RNF170 / RFU, ZNF28 / Fold change vs veh, ZNF28 / RFU, RNGTT / Fold change vs veh, RNGTT / RFU, OGT / Fold change vs veh, OGT / RFU, BRD1 / Fold change vs veh, BRD1 / RFU, MARS / Fold change vs veh, MARS / RFU, ZNF655 / Fold change vs veh, ZNF655 / RFU, FAHD1 / Fold change vs veh, FAHD1 / RFU, BDP1 / Fold change vs veh, BDP1 / RFU, LRRCC1 / Fold change vs veh, LRRCC1 / RFU, ARID1A / Fold change vs veh, ARID1A / RFU, ZNF146 / Fold change vs veh, ZNF146 / RFU, ZNF330 / Fold change vs veh, ZNF330 / RFU, GPN3 / Fold change vs veh, GPN3 / RFU, C9orf123 / Fold change vs veh, C9orf123 / RFU, N4BP2L2 / Fold change vs veh, N4BP2L2 / RFU, ARFIP1 / Fold change vs veh, ARFIP1 / RFU, FAM179B / Fold change vs veh, FAM179B / RFU, BCL10 / Fold change vs veh, BCL10 / RFU, UHRF1BP1L / Fold change vs veh, UHRF1BP1L / RFU, BET1 / Fold change vs veh, BET1 / RFU, CNOT2 / Fold change vs veh, CNOT2 / RFU, ZNF268 / Fold change vs veh, ZNF268 / Fold change vs veh, ZNF507 / RFU, DGCR2 / Fold change vs veh, DGCR2 / RFU, WDSUB1 / Fold change vs veh, WDSUB1 / Fold change vs veh, HSP90B1 /// MIR3652 / RFU, ADSS / Fold change vs veh, ADSS / RFU, GK / Fold change vs veh, GK / RFU, ZNF148 / Fold change vs veh, ZNF148 / RFU, TAF9 / Fold change vs veh, TAF9 / RFU, SLC1A5 / Fold change vs veh, SLC1A5 / RFU, SLMO2 / Fold change vs veh, SLMO2 / RFU, ABCC4 / Fold change vs veh, ABCC4 / RFU, LOC101060439 /// RAP1B / Fold change vs veh, LOC101060439 /// RAP1B / RFU, RFX7 / Fold change vs veh, RFX7 / RFU, GTPBP10 / Fold change vs veh, GTPBP10 / RFU, CNEP1R1 / Fold change vs veh, CNEP1R1 / RFU, BIVM-ERCC5 /// ERCC5 / Fold change vs veh, BIVM-ERCC5 /// ERCC5 / RFU, ILF3 / Fold change vs veh, ILF3 / RFU 11762660_at / Fold change /veh 11762660_at / RFU VCAN (11757783_s_at) / Fold change /veh VCAN (11757783_s_at) / RFU DDX43 (11728927_at) / Fold change /veh DDX43 (11728927_at) / RFU KRT8 (11758188_x_at) / Fold change /veh KRT8 (11758188_x_at) / RFU NKD1 (11759106_at) / Fold change /veh NKD1 (11759106_at) / RFU SRD5A1 (11742802_a_at) / Fold change /veh SRD5A1 (11742802_a_at) / RFU TPSAB1 /// TPSB2 (11721975_s_at) / Fold change /veh TPSAB1 /// TPSB2 (11721975_s_at) / RFU GSTM3 (11746129_a_at) / Fold change /veh GSTM3 (11746129_a_at) / RFU IL23R (11737362_x_at) / Fold change /veh IL23R (11737362_x_at) / RFU TMEM51 (11727254_a_at) / Fold change /veh TMEM51 (11727254_a_at) / RFU PIWIL2 (11732686_x_at) / Fold change /veh PIWIL2 (11732686_x_at) / RFU ORM1 (11744905_x_at) / Fold change /veh ORM1 (11744905_x_at) / RFU CCDC152 (11743942_at) / Fold change /veh CCDC152 (11743942_at) / RFU ECM1 (11717891_a_at) / Fold change /veh ECM1 (11717891_a_at) / RFU IL23R (11748794_a_at) / Fold change /veh IL23R (11748794_a_at) / RFU TNFAIP8L3 (11732012_x_at) / Fold change /veh TNFAIP8L3 (11732012_x_at) / RFU MBOAT4 (11741988_at) / Fold change /veh MBOAT4 (11741988_at) / RFU 11764193_at / Fold change /veh 11764193_at / RFU TMEM53 (11763286_at) / Fold change /veh TMEM53 (11763286_at) / RFU MAGEB2 (11727129_at) / Fold change /veh MAGEB2 (11727129_at) / RFU TMEM200A (11744735_a_at) / Fold change /veh TMEM200A (11744735_a_at) / RFU CCDC152 (11751479_a_at) / Fold change /veh CCDC152 (11751479_a_at) / RFU FAM211A (11726209_a_at) / Fold change /veh FAM211A (11726209_a_at) / RFU RGS16 (11746705_a_at) / Fold change /veh RGS16 (11746705_a_at) / RFU VCAN (11755009_s_at) / Fold change /veh VCAN (11755009_s_at) / RFU RHOB (11743442_s_at) / Fold change /veh RHOB (11743442_s_at) / RFU RGS16 (11720943_a_at) / Fold change /veh RGS16 (11720943_a_at) / RFU RGS16 (11720944_at) / Fold change /veh RGS16 (11720944_at) / RFU, VPS4B / Fold change vs veh, VPS4B / RFU, CREB1 / Fold change vs veh, CREB1 / RFU, DNAJC13 / Fold change vs veh, DNAJC13 / RFU, GNAQ / Fold change vs veh, GNAQ / RFU, CDK5R1 / Fold change vs veh, CDK5R1 / RFU, ZRANB3 / Fold change vs veh, ZRANB3 / RFU, CUL4A / Fold change vs veh, CUL4A / RFU, CCNY / Fold change vs veh, CCNY / RFU, UFL1 / Fold change vs veh, UFL1 / RFU, COG3 / Fold change vs veh, COG3 / RFU, DIAPH2 / Fold change vs veh, DIAPH2 / RFU, SKA2 / Fold change vs veh, SKA2 / RFU, AFF3 / Fold change vs veh, AFF3 / RFU, LMF1 / Fold change vs veh, LMF1 / RFU, IPO11 / Fold change vs veh, IPO11 / RFU, DFFB / Fold change vs veh, DFFB / RFU, FOXP1 / Fold change vs veh, FOXP1 / RFU, CARD8 / Fold change vs veh, CARD8 / RFU, STRN3 / Fold change vs veh, STRN3 / RFU, ADK / Fold change vs veh, ADK / RFU, RASSF2 / Fold change vs veh, RASSF2 / RFU, WIPF1 / Fold change vs veh, WIPF1 / RFU, LARP1B / Fold change vs veh, LARP1B / RFU, RASA1 / Fold change vs veh, RASA1 / RFU, RB1 / Fold change vs veh, RB1 / RFU, PPFIA1 / Fold change vs veh, PPFIA1 / RFU, MAT2A / Fold change vs veh, MAT2A / RFU, CCT5 / Fold change vs veh, CCT5 / RFU, WDR92 / Fold change vs veh, WDR92 / RFU, CUX1 / Fold change vs veh, CUX1 / RFU, TTC7A / Fold change vs veh, TTC7A / RFU, TMEM135 / Fold change vs veh, TMEM135 / RFU, DEPTOR / Fold change vs veh, DEPTOR / RFU, CPM / Fold change vs veh, CPM / RFU, DNAJB6 / Fold change vs veh, DNAJB6 / RFU, CACNA2D3 / Fold change vs veh, CACNA2D3 / RFU, DTX4 / Fold change vs veh, DTX4 / RFU, TFCP2 / Fold change vs veh, TFCP2 / RFU, GMCL1 /// GMCL1P1 / Fold change vs veh, GMCL1 /// GMCL1P1 / RFU, AEBP2 / Fold change vs veh, AEBP2 / RFU, SNHG1 /// SNORD22 /// SNORD25 /// SNORD26 /// SNORD27 /// SNORD28 /// SNORD29 /// SNORD31 / Fold change vs veh, SNHG1 /// SNORD22 /// SNORD25 /// SNORD26 /// SNORD27 /// SNORD28 /// SNORD29 /// SNORD31 / Fold change (Aza/veh), C12orf56 (ProbeSet 11735607_a_at) / Fold change (ACY-1035/veh), C12orf56 (ProbeSet 11735607_a_at) / Fold change (Aza/veh), FGFR1OP (ProbeSet 11751329_s_at) / Fold change (ACY-1035/veh), FGFR1OP (ProbeSet 11751329_s_at) / Fold change (Aza/veh), VPS36 (ProbeSet 11739960_a_at) / Fold change (ACY-1035/veh), VPS36 (ProbeSet 11739960_a_at) / RFU SYPL1 (11715823_x_at) / Fold change /veh SYPL1 (11715823_x_at) / RFU IGFBP7 (11715501_s_at) / Fold change /veh IGFBP7 (11715501_s_at) / RFU REEP3 (11722064_at) / Fold change /veh REEP3 (11722064_at) / RFU IGLL1 (11728026_x_at) / Fold change /veh IGLL1 (11728026_x_at): dose or concentration left out as unconfirmed
# Conditions: ProbeSet 11728314_at; LIST B
structure (smiles),measurement,value
Nc1ccc(-c2cccs2)cc1NC(=O)c1ccc2c(c1)cc(C1CC1)n2CCN1CCOCC1 [ACY-1035],"Fold change vs veh, ZNF148",0.92
